Test results reported in patent US12173018B2, “Penicillin-binding protein inhibitors” (priority 2018, dated 2024).
Like-named read-outs stand apart in the source and are kept apart here.

What was measured:
E. coli PBP3 = E. coli PBP3 (Escherichia coli (strain K12), UniProt P0AD68); experiment: E. coli PBP3 Bocillin-FL fluorescence polarization competition binding assay
Source text: To determine the ability of boronic acid-based test PBP inhibitors to bind Penicillin Binding Proteins (PBPs), Bocillin-FL (fluorescently-labeled penicillin V; ThermoFisher Scientific) was used in a fluorescence polarization (FP) competition binding assay to assess inhibitor binding to PBP2, PBP3 or PBP4 from Escherichia coli. PBPs were cloned and purified as described previously (King, D. T, et al., ACS Infectious Diseases 2015, 1, 175-184). To establish assay conditions for competition binding, an enzyme titration/saturation binding experiment was initially performed. Bocillin-FL was prepared at 0.2 μM in a buffer comprised of 50 mM Hepes (pH 8.0), 300 mM NaCl and 5% (v/v) glycerol. Saturation binding was performed by mixing 40 μl of PBP solutions ranging in concentrations from 0-12 μM with 40 μl of the 0.2 μM Bocillin-FL solution, in individual wells of a black 384-well microplate. FP was measured immediately upon mixing (Excitation, 490 nm; Emission, 520 nm; g-factor, 0.96), using a Cytation3 (BioTek) microplate reader and measured continuously for up to 120 minutes. […] Assays (80 μl final volume) were performed with PBPs at a final concentration of 1.5 μM, Bocillin-FL at 0.1 μM and beta-lactam concentrations that ranged from 0-1000 μM. […] Bocillin-FL was added and the FP immediately measured for 60 minutes (90 minutes for PBP2). The beta-lactam potency was reported as the concentration of beta-lactam required to reduce binding of Bocillin-FL by […] (EC50). […] Binding assays for boronic acid PBP inhibitors were performed in an identical fashion.

E. coli ATCC 25922 = experiment: Broth microdilution MIC, E. coli ATCC 25922; assay type: cell-based; conditions: Escherichia coli
Protocol: (§1) To determine the ability of test compounds to potentiate the inhibition of the growth of bacterial strains, classic cell based broth microdilution minimum inhibitory concentration (MIC) assays were employed. MIC assays are performed according to CLSI methods except where otherwise noted (CLSI, 2011 and CLSI, 2009). The reference type strain E. coli ATCC 25922, the wild-type parent strain E. coli AG100, the hyper-permeable E. coli 901C and E. coli D22 and the E. coli AG100A strain lacking the acrAB efflux pump encoding genes were used to determine the ability of the PBP inhibitors to penetrate the outer membrane of gram-negative bacteria and inhibit bacterial growth. […] The P. aeruginosa PAO1, P. aeruginosa ATCC 27853 and A. baumannii ATCC 19606, along with the hyper-permeable P. aeruginosa ATCC 35151 and an engineered efflux pump-compromised strain of P. aeruginosa (ΔmexAB-oprM) were used to determine the ability of PBP inhibitors to penetrate the outer membrane of P. aeruginosa and A. baumannii and assess antibacterial activity against these important gram-negative organisms.
(§2) Briefly, cryo-preserved bacterial cultures of challenge strains are streaked for isolation on appropriate agar medium, in this case Mueller Hinton II agar. Following incubation to allow growth of the colonies, plates are sealed with parafilm and stored refrigerated for up to two weeks. For preparation of assay inoculum and to ensure low variability, at least 5 colonies are picked from the agar plates with an inoculating loop and aseptically transferred to a culture tube containing 3 mL of Mueller-Hinton Broth (supplemented with divalent cations to required levels based on Manufacturers' certification). The broth culture is grown for 3-5 hours at 37° C. with shaking at 200 rpm. Meanwhile, 2-fold serial dilutions of test compounds are conducted in a 96 well plate with a final volume of 75 μL per well at 2-fold the final desired concentration. After the dilution plates are set up the growing cultures are then diluted in a cuvette containing MH II broth and the optical density is measured at 600 nm. The Inoculum is diluted such that 75 μL of this culture in Mueller-Hinton Broth results in a starting bacterial concentration of 5×10^5 CFU/mL when added to the dilution plates. The plates are incubated for 16-20 hours at 37° C. The MIC values are read visually as the lowest concentration well with no bacterial growth.

E. coli AG100 = experiment: Broth microdilution MIC, E. coli AG100 (wild-type parent); assay type: cell-based; conditions: Escherichia coli; wild-type parent E. coli AG100, broth microdilution; read-out: MIC E. coli AG100
Protocol: To determine the ability of test compounds to potentiate the inhibition of the growth of bacterial strains, classic cell based broth microdilution minimum inhibitory concentration (MIC) assays were employed.
as §2

E. coli 901C = experiment: microbe, parasite or virus in culture; assay type: cell-based; conditions: Escherichia coli; hyper-permeable E. coli 901C, broth microdilution; read-out: MIC E. coli 901C
Protocol: as §1, §2

E. coli AG100A = experiment: microbe, parasite or virus in culture; assay type: cell-based; conditions: Escherichia coli, read-out: MIC E. coli AG100A
Protocol: as §1, §2

E. coli D22 = experiment: microbe, parasite or virus in culture; assay type: cell-based; conditions: Escherichia coli; hyper-permeable E. coli D22, broth microdilution; read-out: MIC E. coli D22
Protocol: as §1, §2

K. pneumoniae SI-117 = experiment: microbe, parasite or virus in culture; assay type: cell-based; conditions: Klebsiella pneumoniae, SI117, read-out: MIC K. pneumoniae SI-117
Protocol: as §1, §2

K. pneumoniae UMM = experiment: microbe, parasite or virus in culture; assay type: cell-based; conditions: Klebsiella pneumoniae; K. pneumoniae UMM producing SHV-5 and KPC-2; read-out: MIC K. pneumoniae UMM
Protocol: as §1, §2

K. pneumoniae 848844 = experiment: microbe, parasite or virus in culture; assay type: cell-based, Klebsiella pneumoniae; conditions: Klebsiella pneumoniae; K. pneumoniae 848844 producing SHV-11 and KPC-2; read-out: MIC K. pneumoniae 848844
Protocol: as §1, §2

[1] = ATCC25922, E. coli ATCC 25922, broth microdilution, read-out: MIC E. coli 25922
[2] = ATCC25922, read-out: MIC E. coli 25922

Sequence of E. coli PBP3 (P0AD68 whole entry): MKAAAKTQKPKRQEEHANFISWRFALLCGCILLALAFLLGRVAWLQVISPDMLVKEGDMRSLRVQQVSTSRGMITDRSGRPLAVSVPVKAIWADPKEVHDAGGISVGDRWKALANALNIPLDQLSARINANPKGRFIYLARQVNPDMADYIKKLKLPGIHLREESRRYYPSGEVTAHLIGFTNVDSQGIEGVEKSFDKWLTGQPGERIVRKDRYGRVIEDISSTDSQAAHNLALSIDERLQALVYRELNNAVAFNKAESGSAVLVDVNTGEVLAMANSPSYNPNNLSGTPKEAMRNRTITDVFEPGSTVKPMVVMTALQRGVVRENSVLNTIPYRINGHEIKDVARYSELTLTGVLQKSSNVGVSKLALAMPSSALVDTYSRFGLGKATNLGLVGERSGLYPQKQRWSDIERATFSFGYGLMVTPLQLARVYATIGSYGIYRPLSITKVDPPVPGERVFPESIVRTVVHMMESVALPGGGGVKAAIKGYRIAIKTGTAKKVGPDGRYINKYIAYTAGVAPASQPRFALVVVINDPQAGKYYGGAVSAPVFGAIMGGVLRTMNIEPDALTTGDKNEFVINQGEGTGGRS

SMILES | EC50 (E. coli PBP3) [µM] | MIC (E. coli ATCC 25922; [1]) [µg/mL] | MIC (E. coli AG100) [µg/mL] | MIC (E. coli 901C) [µg/mL] | MIC (E. coli AG100A) [µg/mL] | MIC (E. coli D22) [µg/mL] | MIC (K. pneumoniae SI-117) [µg/mL] | MIC (K. pneumoniae UMM) [µg/mL] | MIC (K. pneumoniae 848844) [µg/mL] | MIC (E. coli ATCC 25922; [2]) [µg/mL]
NCCN1CCN(C(=O)N[C@H](C(=O)N[C@H]2Cc3cccc(C(=O)O)c3OB2O)c2ccc(O)c(O)c2Cl)C(=O)C1=O [Example 221, (R)-3-((S)-2-(4-(2-aminoethyl)-2,3-dioxopiperazine-1-carboxamido)-2-(2-chloro-3,4-dihydroxyphenyl)acetamido)-2-hydroxy-3,4-dihydro-2H-benzo[e][1,2]oxaborinine-8-carboxylic acid] | 30 to 500 | > 128 | 8 to 16 | 8 to 16 | 8 to 16 | 8 to 16 | 32 to 64 | 8 to 16 | 32 to 64 | –
NS(=O)(=O)c1ccc([C@H](NC(=O)N2CCN(CCBr)C(=O)C2=O)C(=O)N[C@H]2Cc3cccc(C(=O)O)c3OB2O)cc1O [Example 171, (R)-3-((S)-2-(4-(2-bromoethyl)-2,3-dioxopiperazine-1-carboxamido)-2-(3-hydroxy-4-sulfamoylphenyl)acetamido)-2-hydroxy-3,4-dihydro-2H-benzo[e][1,2]oxaborinine-8-carboxylic acid] | 30 to 500 | – | 32 to 64 | 0.5 to 1 | 8 to 16 | 0.5 to 1 | > 128 | 32 to 64 | > 128 | 32 to 64
CCN1CCN(C(=O)NC(C(=O)N[C@H]2Cc3cccc(C(=O)O)c3OB2O)c2ncc(C(=O)NCCO)cc2F)C(=O)C1=O (stereo partly drawn) [Example 241, (3R)-3-(2-(4-ethyl-2,3-dioxopiperazine-1-carboxamido)-2-(3-fluoro-5-((2-hydroxyethyl)carbamoyl)pyridin-2-yl)acetamido)-2-hydroxy-3,4-dihydro-2H-benzo[e][1,2]oxaborinine-8-carboxylic acid] | – | – | > 128 | 0.5 to 1 | 8 to 16 | 8 to 16 | > 128 | > 128 | > 128 | > 128
CCN1CCN(C(=O)NC(C(=O)N[C@H]2Cc3cccc(C(=O)O)c3OB2O)c2ccc(O)c(S(N)(=O)=O)c2)C(=O)C1=O (stereo partly drawn) [Example 143, (3R)-3-(2-(4-ethyl-2,3-dioxopiperazine-1-carboxamido)-2-(4-hydroxy-3-sulfamoylphenyl)acetamido)-2-hydroxy-3,4-dihydro-2H-benzo[e][1,2]oxaborinine-8-carboxylic acid] | – | 32 to 64 | 32 to 64 | < 0.25 | 2 to 4 | 2 to 4 | > 128 | 32 to 64 | > 128 | –
CCNC(=O)NC(C(=O)N[C@H]1Cc2cccc(C(=O)O)c2OB1O)c1csc(N)n1 (stereo partly drawn) [Example 6, (3R)-3-(2-(2-aminothiazol-4-yl)-2-(3-ethylureido)acetamido)-2-hydroxy-3,4-dihydro-2H-benzo[e][1,2]oxaborinine-8-carboxylic acid] | – | – | > 128 | 8 to 16 | 8 to 16 | – | – | > 128 | – | > 128
Nc1nc(C(NS(=O)(=O)c2cccnc2)C(=O)N[C@H]2Cc3cccc(C(=O)O)c3OB2O)cs1 (stereo partly drawn) [Example 7, (3R)-3-(2-(2-aminothiazol-4-yl)-2-(pyridine-3-sulfonamido)acetamido)-2-hydroxy-3,4-dihydro-2H-benzo[e][1,2]oxaborinine-8-carboxylic acid] | – | – | > 128 | 8 to 16 | 32 to 64 | – | – | > 128 | – | > 128
